Results as given in patent US20150342195A1, “ANTI-MICROBIAL COMPOSITIONS, PREPARATIONS, METHODS, AND USES” (MYCO SCIENCES LIMITED, priority 2014, published 2015).
Read-outs that look alike come from different tables or passages of the source.

Tests used:
Trichophyton rubrum = test: Fungal growth inhibition assay with Trichophyton rubrum; assay type: cell-based
Procedure: To assess the effects of compositions on fungal growth, 10 microliters of the test compositions diluted in sterile distilled water were placed in the wells of a 12-well tissue culture plate and 1 milliliter of liquid PDA was added by pipette to each well. Where multiple samples were added to each well, the 10 microliter drops were kept separate until they were mixed by the addition of hot liquid PDA and the plate was then agitated to evenly distribute the test composition(s) evenly through the agar (distilled water was used as vehicle control) and then the agar was allowed to set. For most strains (see TABLE 2), plugs of agar containing fungal hyphae (2 to 3 millimeters in diameter) from the edge of an established fungal culture were carefully cut out using a scalpel and inserted into holes cut in the centre of the agar in each well of the 12-well plate. With B. cinerea and U. maydis, mature cultures were washed with 3 ml of sterile distilled water and the spore suspensions obtained were adjusted to O.D. (at 600 nanometers) of 1.0 and 1.5, respectively. A small hole (˜1 millimeter) was made in the center of the PDA in each well with a yellow pipette tip and 1.5 microliters of spore suspension was carefully pipetted into the hole. […] To assess the effects of compositions on fungal growth in all experiments, the diameter of the hyphal growth was measured twice at a 90° angle using a ruler and the average diameter in millimeters was calculated. If no fungal growth could be detected by eye, the cultures were observed by phase microscopy (40×) to confirm that there was no growth (NG).
A clinical isolate of T. rubrum (strain 7107996; Phylum: Acomycota) was kindly provided by Dr. Richard Barton, Leeds University, UK. The growth assays with T. rubrum were as described in EXAMPLE 1, except this strain was cultured at 33° C. on PDA for 6 or 7 days when growth was assessed. T. rubrum cultures were maintained on Sabouraud dextrose agar at 33° C.
FIG. 8 is a graph depicting the effects of selected compositions and compounds on the growth of Trichophyton rubrum. The culture period was 7 days. Growth in the control cultures was 20±0 millimeters (mean±SD for 2 experiments).

Magnaporthe oryzae = test: microbe, parasite or virus in culture; assay type: cell-based; conditions: for Average diameter of fungal growth: Cu—Zn#12 0%, plug subtracted
[1] = tested on: Xanthomonas oryzae (strain Gx0372); test: microbe, parasite or virus in culture; assay type: cell-based; conditions: Xanthomonas oryzae, 24 h
[2] = tested on: Pseudomonas syringae (pv. tomato DC3000); test: Bacterial microplate culture (resazurin MIC); assay type: cell-based; conditions: Pseudomonas syringae; 24 hours at 28° C.; highest concentration 400 mg/L (1% of stock solutions); read-out: MIC
Rhizoctonia solani = test: Fungal growth inhibition assay (hyphal growth diameter on PDA); assay type: cell-based; conditions: for IC50: Rhizoctonia solani
plant pathogenic fungi = test: organism not typed; assay type: cell-based; conditions: for fungal growth with KS: 1000 milligrams/liter KS
Fusarium graminearum = test: microbe, parasite or virus in culture; assay type: cell-based; conditions: for IC50: Fusarium graminearum
[3] = tested on: 4 plant pathogenic bacterial strains; conditions: KS at ≧10,000 milligrams/liter, any strain
Alternaria alternata = test: Fungal growth inhibition assay (hyphal growth diameter on PDA); assay type: cell-based; conditions: for IC50: Alternaria alternata
[4] = tested on: Mycosphaerella graminicola; test: as above; assay type: cell-based
Procedure: The fungal strains used in these studies are described in TABLE 2. The strains were routinely cultured in 9 centimeter Petri dishes containing 10 milliliters of potato dextrose agar (PDA) at room temperature (22° C.) apart from U. maydis (28° C.).
To assess the effects of compositions on fungal growth, 10 microliters of the test compositions diluted in sterile distilled water were placed in the wells of a 12-well tissue culture plate and 1 milliliter of liquid PDA was added by pipette to each well. Where multiple samples were added to each well, the 10 microliter drops were kept separate until they were mixed by the addition of hot liquid PDA and the plate was then agitated to evenly distribute the test composition(s) evenly through the agar (distilled water was used as vehicle control) and then the agar was allowed to set. […] To assess the effects of compositions on fungal growth in all experiments, the diameter of the hyphal growth was measured twice at a 90° angle using a ruler and the average diameter in millimeters was calculated. If no fungal growth could be detected by eye, the cultures were observed by phase microscopy (40×) to confirm that there was no growth (NG).

Aspergillus niger = test: as above; assay type: cell-based; conditions: for IC50: Aspergillus niger
[5] = tested on: Ralstonia solanacearum (strain PSS4 from tomato); test: microbe, parasite or virus in culture; assay type: cell-based; conditions: Ralstonia solanacearum, 24 h
[6] = tested on: Xanthomonas campestris (strain Race 5 from brassica); test: Bacterial microplate culture (resazurin MIC); assay type: cell-based; conditions: Xanthomonas campestris; 24 hours at 28° C.; highest concentration 400 mg/L (1% of stock solutions); read-out: MIC
Botrytis cinerea = test: Fungal growth inhibition assay (hyphal growth diameter on PDA); assay type: cell-based; conditions: for IC50: Botrytis cinerea
Ustilago maydis = test: as above; assay type: cell-based; conditions: for IC50: Mycosarcoma maydis
[7] = read-out: Potassium sorbate IC50, mean ± SD, PDA
[8] = read-out: Potassium sorbate IC50, single experiments, PDA

C/C=C/C=C/C(=O)[O-].[K+] [Potassium sorbate]
inhibition of fungal growth (Trichophyton rubrum; KS 100 milligrams/liter on its own): 6%
KS concentration required for complete inhibition of fungal growth (Trichophyton rubrum; KS alone (FIG. 9)): 300 milligrams/liter
T. rubrum IC50 values: % of stock solution (Trichophyton rubrum; PDA, 33° C., 7 days): 0.017 % of stock solution
IC50 (Trichophyton rubrum; Trichophyton rubrum, 168 h, PDA, 33° C., 7 days, Cu—Zn#12: 50% each of elemental copper and zinc, read-out: T. rubrum IC50 values: Concentration): 17 µg/mL
Average diameter of fungal growth (Magnaporthe oryzae; KS 10 mg/L, PDA): 17 mm
Average diameter of fungal growth (Magnaporthe oryzae; KS 30 mg/L, PDA): 17 mm
Average diameter of fungal growth (Magnaporthe oryzae; KS 100 mg/L, PDA): 15 mm
Average diameter of fungal growth (Magnaporthe oryzae; KS 150 mg/L, PDA): 14 mm
Average diameter of fungal growth (Magnaporthe oryzae; KS 300 mg/L, PDA): 9 mm
effect on fungal growth alone (Magnaporthe oryzae; KS 10 milligrams/liter alone): no effect
Minimum KS concentration required for NG (Magnaporthe oryzae; PDA, NG = no fungal growth): 1000 mg/L
IC50 (Magnaporthe oryzae; Pyricularia oryzae, read-out: Potassium sorbate IC50, mean ± SD, PDA): 140 µg/mL
KS concentration that completely inhibited growth (Magnaporthe oryzae; in the presence of […] Cu—Zn#12): 30 milligrams/liter
times lower KS concentration for complete inhibition (Magnaporthe oryzae; with […] Cu—Zn#12 versus KS alone): 33 times
MIC [1]: > 10000 µg/mL
MIC [2]: > 10000 µg/mL
Potassium sorbate IC50, single experiments (Rhizoctonia solani; PDA): 100 µg/mL
Minimum KS concentration required for NG (Rhizoctonia solani; PDA, NG = no fungal growth): 1000 mg/L
IC50 (Rhizoctonia solani; [7]): 91 µg/mL
IC50 (Rhizoctonia solani; [8]): 73 µg/mL
number of fungal strains whose growth was completely inhibited (plant pathogenic fungi; 300 milligrams/liter KS, eight strains tested): 4 strains
fungal growth with KS (plant pathogenic fungi; all eight fungal strains): completely inhibited
fungal growth with KS (plant pathogenic fungi; five fungal strains of FIG. 2): no growth
IC50 (plant pathogenic fungi; read-out: KS IC50 range on plant pathogenic fungi): 77 to 190 µg/mL
IC50 (Fusarium graminearum; [7]): 185 µg/mL
IC50 (Fusarium graminearum; [8]): 150 µg/mL
Potassium sorbate IC50, single experiments (Fusarium graminearum; PDA): 220 µg/mL
Minimum KS concentration required for NG (Fusarium graminearum; PDA, NG = no fungal growth): 1000 mg/L
effect on bacterial growth [3]: no effect
IC50 (Alternaria alternata; [7]): 190 µg/mL
IC50 (Alternaria alternata; [8]): 180 µg/mL
Potassium sorbate IC50, single experiments (Alternaria alternata; PDA): 200 µg/mL
Minimum KS concentration required for NG (Alternaria alternata; PDA, NG = no fungal growth): 300 mg/L
Minimum KS concentration required for NG ([4]; NG = no fungal growth): 300 mg/L
IC50 ([4]; Zymoseptoria tritici, read-out: Potassium sorbate IC50, single experiment): 150 µg/mL
IC50 (Aspergillus niger; [7]): 91 µg/mL
IC50 (Aspergillus niger; [8]): 82 µg/mL
Potassium sorbate IC50, single experiments (Aspergillus niger; PDA): 100 µg/mL
Minimum KS concentration required for NG (Aspergillus niger; PDA, NG = no fungal growth): 300 mg/L
MIC [5]: > 10000 µg/mL
MIC [6]: > 10000 µg/mL
IC50 (Botrytis cinerea; [7]): 175 µg/mL
IC50 (Botrytis cinerea; [8]): 200 µg/mL
Potassium sorbate IC50, single experiments (Botrytis cinerea; PDA): 150 µg/mL
Minimum KS concentration required for NG (Botrytis cinerea; PDA, NG = no fungal growth): 1000 mg/L
IC50 (Ustilago maydis; read-out: KS IC50, PDA): 0.077 µg/mL
IC50 (Ustilago maydis; [7]): 77 µg/mL
IC50 (Ustilago maydis; [8]): 74 µg/mL
Potassium sorbate IC50, single experiments (Ustilago maydis; PDA): 80 µg/mL
Minimum KS concentration required for NG (Ustilago maydis; PDA, NG = no fungal growth): 300 mg/L
